Measured values taken from US10160772B2, “5,6-dihydro-4H-benzo[b]thieno-[2,3-d]azepine derivatives” (PULMOCIDE LIMITED, priority 2014, dated 2018).

How the values were obtained:
Assay type in all cases: cell-based
[1] = Cell viability: resazurin assay in Hep2 cells; details: human, 5 days incubation
Experimental: Cell Viability: Resazurin Assay Hep2 cells were seeded in 384-well plates (10^3/well/50 μL; BD Falcon Ref 353962) in FBS DMEM (5%, containing 2 mM L-glutamine and 1 mM sodium pyruvate) one day before experimentation. Serum-free DMEM (50 μL) was added to test wells while for control wells the media was removed and sterile water (100 μL) was added. Test compounds (0.5 μL DMSO solution) were added to give a final DMSO concentration of 0.5%. Hep2 cells were incubated with each test compound for 5 days (37° C./5% CO2 in 5% FBS) and then resazurin stock solution (5 μL; 0.03%) was added to each well and the plate incubated further for a further 6 hrs (37° C./5% CO2). The fluorescence of each well at 545 nm (excitation) and 590 nm (emission) was determined using a multi-scanner (Clariostar: BMG Labtech). The percentage loss of cell viability was calculated for each well relative to vehicle (0.5% DMSO) treatment. Where appropriate, a CC50 value was calculated from the concentration-response curve generated from the concentration-response curve for each test compound.

[2] = tested on: RSV A2 F-protein expression; assay: RSV A2 F-protein expression in BEAS2B bronchial epithelial cells; details: human respiratory syncytial virus, BEAS-2B, 72 h, read-out: RSV A2 F-protein IC50
Experimental: Assessment of RSV F Protein Expression in BEAS2B Bronchial Epithelial Cells
An early event which follows the infection of epithelial cells by RSV is the expression of RSV F-protein on the cells' surface. BEAS2B cells (SV40-immortalised human bronchial epithelial cell line) were grown in 96 well plates. Once more than 70% confluent, cells were infected with RSV A2 (#0709161v, NCPV, Public Health England, Wiltshire) at an MOI of 0.01 in clear RPMI-1640 medium (Life technologies, Paisley, UK) with 2% FBS (Life technologies, Paisley, UK), and incubated for 3 days (37° C./5% CO2).
Supernatant was aspirated and the cells were fixed with 4% formaldehyde (100 μL in PBS solution) for 20 min, washed 3 times with washing buffer (200 μL; PBS containing 0.05% Tween-20) and incubated with blocking solution (100 μL; 5% Marvel milk in PBS) for 1 hr. Cells were then washed with washing buffer (200 μL) and incubated for 1 hr at 37° C. with anti-RSV (2F7; mouse monoclonal, lot 160290, Cat. No. ab43812, Abcam plc, Cambridge, UK) F-fusion protein antibody (50 μL; prepared at a 1:1000 dilution in 5% milk/PBS-tween). After washing, cells were incubated with an HRP-conjugated anti-mouse IgG antibody (50 μL prepared at a 1:2000 dilution in 5% milk in PBS; lot 00095437, Cat. No. P0447, Dako UK Ltd, Cambridgeshire, UK) for 1 hr. Cells were washed twice with washing buffer and once with PBS. TMB substrate (100 μL; substrate reagent pack lot 320436, Cat. No. DY999, R&D Systems, Inc. Abingdon, UK) was then added and the reaction was stopped by the addition of aq sulfuric acid (50 μL; 2N). The resultant signal was determined colourimetrically (OD: 450 nm with a reference wavelength of 655 nm) in a microplate reader (Multiskan FC®, ThermoFisher Scientific). Cells were then washed and 1% crystal violet solution (50 μL; lot SLB4576, Cat. No. HT90132-1L, Sigma-Aldrich) was applied for 30 min. After washing with PBS (200 μL) 3 times, 1% SDS (100 μL) was added to each well, and plates were shaken lightly for 1 hr prior to reading the absorbance at 595 nm. The measured OD450-655 readings were corrected for cell number by dividing the OD450-655 by the OD595 readings. The percentage inhibition for each well was calculated and the IC50 value derived from the concentration-response curve generated for each test compound.

RSV A2 strain = assay: RSV A2-induced CPE in Hep2 cells; details: human respiratory syncytial virus, Hep2 cells; for IC50: HEp-2, 120 h, RSV A2 1 MOI, 5 days, resazurin, read-out: RSV A2 CPE IC50; for inhibition at 0.01 µg/mL: at 0.01 μg/mL (footnote 2)
Experimental: (§1) Biological Testing: Experimental Methods Assessment of RSV Induced CPE in Hep2 Cells
(§2) Hep2 cells were seeded (10^3/well/50 μL) in 384-well plates (Catalogue number 353962, BD Falcon, Oxford, UK) in 5% serum free-DMEM containing 2 mM L-glutamine and 1 mM sodium pyruvate one day before infection. RSV A2 strain (#0709161v, NCPV, Public Health England, Wiltshire) or RSV B Washington strain (VR-1580, ATCC, Manassas, Va. 20108) virus solutions were prepared in serum free-DMEM with 2 mM L-glutamine and 1 mM sodium pyruvate, and then added (50 μL/well) to achieve a final virus concentration of 1 MOI for RSV A and 0.1MOI for RSV B. Simultaneously test compounds (0.5 μL DMSO solution) were added to 100 μL of Hep2 cell culture with virus solution to provide a final DMSO solution of 0.5%. Plates were incubated (37° C./5% CO2) for 5 days for studies using RSV A2 strain or 6 days for those using RSV B strain, and then resazurin sodium salt (5 μL of 0.03% solution; Sigma-Aldrich, Dorset, UK) was added to each well and the plate incubated for a further 6 hr (37° C. and 5% CO2). The fluorescence of each well [545 nm (excitation)/590 nm (emission)] was determined using a multi-scanner (Clariostar: BMG, Buckinghamshire, UK). The percentage inhibition for each well was calculated and the IC50, IC75 and IC90 values were calculated from the concentration-response curve generated for each test compound.

RSV B Washington strain = assay: RSV B-induced CPE in Hep2 cells; details: human respiratory syncytial virus, Hep2 cells; for IC50: HEp-2, 144 h, RSV B Washington 0.1 MOI, 6 days, resazurin, read-out: RSV B CPE IC50; for inhibition at 1 µg/mL: HEp-2, at 1 μg/mL, read-out: RSV B CPE % Inhibition
Experimental: as §1, §2

[3] = HEp-2, read-out: RSV A2 CPE % Inhibition

Row | Structure (SMILES) | CC50 at 5 days [1] | IC50 [2] | IC50 (RSV A2 strain) | inhibition at 0.1 µg/mL (RSV A2 strain; HEp-2, at 0.1 μg/mL, read-out: RSV A2 CPE % Inhibition) | IC50 (RSV B Washington strain) | inhibition at 1 µg/mL (RSV B Washington strain) | inhibition at 0.01 µg/mL (RSV A2 strain; [3])
1 | N#Cc1cccc2nc(-c3cc4c(s3)-c3ccccc3N(C(=O)c3ccc(NC(=O)c5cccnc5N5CC6(CCOCC6)C5)cc3)CC4)[nH]c12 [Example 12, N-(4-(2-(7-cyano-1H-benzo[d]imidazol-2-yl)-5,6-dihydro-4H-benzo[b]thieno[2,3-d]azepine-6-carbonyl)phenyl)-2-(7-oxa-2-azaspiro[3.5]nonan-2-yl)nicotinamide] | > 14.5 µM | 0.21 nM | 0.94 nM | 100% | 111 nM | 100% | 
2 | C#Cc1cnc(N2CC3(CCOCC3)C2)c(C(=O)Nc2ccc(C(=O)N3CCc4cc(-c5nc6ccccc6[nH]5)sc4-c4ccccc43)cc2)c1 [Example 5, N-(4-(2-(1H-Benzo[d]imidazol-2-yl)-5,6-dihydro-4H-benzo[b]thieno[2,3-d]azepine-6-carbonyl)phenyl)-5-ethynyl-2-(7-oxa-2-azaspiro[3,5]nonan-2-yl)nicotinamide] | > 14.5 µM | 0.11 nM | 6.9 nM |  | 36.1 nM | 92% | 100%
3 | Cc1cnc(N2CC3(CCOCC3)C2)c(C(=O)Nc2ccc(C(=O)N3CCc4cc(-c5nc6cccc(F)c6[nH]5)sc4-c4ccccc43)cc2)c1 [Example 14, N-(4-(2-(7-fluoro-1H-benzo[d]imidazol-2-yl)-5,6-dihydro-4H-benzo[b]thieno[2,3-d]azepine-6-carbonyl)phenyl)-5-methyl-2-(7-oxa-2-azaspiro[3.5]nonan-2-yl)nicotinamide] | > 14.3 µM | 0.31 nM | 0.24 nM |  | 0.99 nM | 100% | 93%
